Assays:
KRas G12D = KRas G12D (Homo sapiens, UniProt P01116, G12D); assay: biochemical; details: Binding to KRas (IC50 nM) G12D, TR-FRET displacement, KRas G12D
KRas G12S = KRas G12S (Homo sapiens, UniProt P01116, G12S); type: binding; details: single point, 10 nM compound, read-out: Binding to KRas (% inhibition at 10 nM) G12S
H460 cells = assay: Inhibition of KRas-mediated phosphorylation of ERK (Cisbio HTRF pERK), H460 cells; type: cell-based; details: Homo sapiens; for IC50: NCI-H460, 3 h, 3 hr compound incubation, Cisbio pERK HTRF; for inhibition at 0.1 µM: NCI-H460, single point at 100 nM, 3 hrs compound incubation
PSN1 cells = assay: Inhibition of KRas-mediated phosphorylation of ERK (Cisbio HTRF pERK), PSN1 cells; type: cell-based; details: Homo sapiens, PSN1, 3 h, 3 hour compound incubation, Cisbio pERK HTRF
Method in brief: (§1)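 Day 1: 6,000 cells/well plated, RPMI + 10% FBS.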

KRas G13D = KRas G13D (Homo sapiens, UniProt P01116, G13D); type: binding; details: single point, 10 nM compound, read-out: Binding to KRas (% inhibition at 10 nM) G13D
Sequence of KRas G13D (P01116 1-169 isoform P01116-2 G13D): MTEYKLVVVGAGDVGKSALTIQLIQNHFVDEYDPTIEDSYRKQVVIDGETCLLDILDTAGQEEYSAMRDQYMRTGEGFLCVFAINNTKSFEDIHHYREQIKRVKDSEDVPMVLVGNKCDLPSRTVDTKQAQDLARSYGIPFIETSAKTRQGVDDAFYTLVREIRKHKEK

KRas G12A = KRas G12A (Homo sapiens, UniProt P01116, G12A); type: binding; details: single point, 10 nM compound, read-out: Binding to KRas (% inhibition at 10 nM) G12A
Sequence of KRas G12A (P01116 1-169 isoform P01116-2 G12A): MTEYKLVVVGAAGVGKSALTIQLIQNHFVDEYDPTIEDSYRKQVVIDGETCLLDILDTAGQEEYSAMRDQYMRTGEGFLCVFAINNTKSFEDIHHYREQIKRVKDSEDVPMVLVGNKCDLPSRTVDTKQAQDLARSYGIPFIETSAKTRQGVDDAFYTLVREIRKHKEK

H358 cells = assay: Inhibition of KRas-mediated phosphorylation of ERK (Cisbio HTRF pERK), H358 cells; type: cell-based; details: Homo sapiens; for IC50: NCI-H358, 3 h, 3 hr compound incubation, Cisbio pERK HTRF; for inhibition at 0.1 µM: NCI-H358, single point at 100 nM, 3 hrs compound incubation
KRas G12V = KRas G12V (Homo sapiens, UniProt P01116, G12V); assay: biochemical; details: Binding to KRas (IC50 nM) G12V, TR-FRET displacement, KRas G12V
Sequence of KRas G12V (P01116 1-169 isoform P01116-2 G12V): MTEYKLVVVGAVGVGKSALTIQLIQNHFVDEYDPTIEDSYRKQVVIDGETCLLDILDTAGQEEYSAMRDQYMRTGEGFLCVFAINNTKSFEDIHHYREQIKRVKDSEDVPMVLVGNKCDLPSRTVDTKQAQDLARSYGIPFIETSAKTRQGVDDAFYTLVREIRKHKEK

A549 cells = assay: Inhibition of KRas-mediated phosphorylation of ERK (Cisbio HTRF pERK), A549 cells; type: cell-based; details: Homo sapiens; for IC50: A549, 3 h, 3 hr compound incubation, Cisbio pERK HTRF; for inhibition at 0.1 µM: single point at 100 nM, 3 hrs compound incubation
KRas G12R = KRas G12R (Homo sapiens, UniProt P01116, G12R); assay: biochemical; details: Binding to KRas (IC50 nM) G12R, TR-FRET displacement, KRas G12R
Sequence of KRas G12R (P01116 1-169 isoform P01116-2 G12R): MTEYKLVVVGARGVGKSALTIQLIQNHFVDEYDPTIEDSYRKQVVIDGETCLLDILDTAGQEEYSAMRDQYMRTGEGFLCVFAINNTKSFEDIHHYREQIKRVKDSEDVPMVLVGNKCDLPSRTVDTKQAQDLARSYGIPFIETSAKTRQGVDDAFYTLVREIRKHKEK

MKN1 cells = assay: Inhibition of KRas-mediated phosphorylation of ERK (Cisbio HTRF pERK), MKN1 cells; type: cell-based; details: Homo sapiens, MKN-1, 3 hour compound incubation, Cisbio pERK HTRF
Method in brief: as §1

H727 cells = assay: Inhibition of KRas-mediated phosphorylation of ERK (Cisbio HTRF pERK), H727 cells; type: cell-based; details: Homo sapiens; for IC50: NCI-H727, 3 h, 3 hr compound incubation, Cisbio pERK HTRF; for inhibition at 0.1 µM: NCI-H727, single point at 100 nM, 3 hrs compound incubation
HCT116 cells = assay: Inhibition of KRas-mediated phosphorylation of ERK (Cisbio HTRF pERK), HCT116 cells; type: cell-based; details: Homo sapiens; for IC50: HCT-116, 3 h, 3 hr compound incubation, Cisbio pERK HTRF; for inhibition at 0.1 µM: HCT-116, single point at 100 nM, 3 hrs compound incubation
KRas Q61H = KRas Q61H (Homo sapiens, UniProt P01116, Q61H); assay: KRas binding assay (TR-FRET displacement), KRas Q61H; details: single point, 10 nM compound
Sequence of KRas Q61H (P01116 1-169 isoform P01116-2 Q61H): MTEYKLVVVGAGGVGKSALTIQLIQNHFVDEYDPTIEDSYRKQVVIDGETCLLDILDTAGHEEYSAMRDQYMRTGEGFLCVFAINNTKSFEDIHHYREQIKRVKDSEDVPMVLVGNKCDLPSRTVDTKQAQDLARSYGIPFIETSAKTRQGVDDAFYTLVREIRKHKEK

ASPC1 cells = assay: Inhibition of KRas-mediated phosphorylation of ERK (Cisbio HTRF pERK), ASPC1 cells; type: cell-based; details: Homo sapiens, AsPC-1 cells; for IC50: ASPC1, 3 h, 3 hr compound incubation, Cisbio pERK HTRF; for inhibition at 0.1 µM: ASPC1, single point at 100 nM, 3 hrs compound incubation
KRas G12C = KRas G12C (Homo sapiens, UniProt P01116, G12C); type: binding; details: single point, 10 nM compound, read-out: Binding to KRas (% inhibition at 10 nM) G12C
Sequence of KRas G12C (P01116 1-169 isoform P01116-2 G12C): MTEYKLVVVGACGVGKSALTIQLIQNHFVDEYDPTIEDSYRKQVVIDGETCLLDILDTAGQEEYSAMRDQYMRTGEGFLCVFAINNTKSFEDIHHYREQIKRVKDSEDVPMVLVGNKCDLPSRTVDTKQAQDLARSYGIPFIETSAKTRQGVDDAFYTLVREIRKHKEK

KRas WT = KRas WT (Homo sapiens, UniProt P01116); assay: KRas binding assay (TR-FRET displacement), KRas WT; details: single point, 10 nM compound
Sequence of KRas WT (P01116 1-169 isoform P01116-2): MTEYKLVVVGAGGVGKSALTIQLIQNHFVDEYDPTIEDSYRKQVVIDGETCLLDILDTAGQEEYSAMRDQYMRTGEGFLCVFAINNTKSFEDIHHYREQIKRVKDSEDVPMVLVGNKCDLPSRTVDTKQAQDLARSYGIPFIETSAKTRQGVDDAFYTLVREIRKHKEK

Sequence of KRas G12S (P01116 1-169 isoform P01116-2 G12S): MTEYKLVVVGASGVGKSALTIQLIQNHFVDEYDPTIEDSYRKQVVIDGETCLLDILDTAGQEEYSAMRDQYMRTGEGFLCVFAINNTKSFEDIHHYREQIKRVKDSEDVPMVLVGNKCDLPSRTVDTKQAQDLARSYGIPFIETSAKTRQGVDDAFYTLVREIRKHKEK
Sequence of KRas G12D (P01116 1-169 isoform P01116-2 G12D): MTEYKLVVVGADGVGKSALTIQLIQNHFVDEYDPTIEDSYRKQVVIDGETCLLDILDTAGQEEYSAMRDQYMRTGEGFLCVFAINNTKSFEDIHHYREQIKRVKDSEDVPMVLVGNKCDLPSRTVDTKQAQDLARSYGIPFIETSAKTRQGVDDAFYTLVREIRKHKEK

| IC50 (KRas G12D) | inhibition at 0.01 µM (KRas G12S) | IC50 (H460 cells) | IC50 (PSN1 cells) | inhibition at 0.01 µM (KRas G13D) | inhibition at 0.01 µM (KRas G12A) | IC50 (KRas G12V) | IC50 (KRas G12R) | IC50 (MKN1 cells) | IC50 (H727 cells) | IC50 (HCT116 cells) | inhibition at 0.01 µM (KRas Q61H) | IC50 (ASPC1 cells) | inhibition at 0.01 µM (KRas G12C) | inhibition at 0.01 µM (KRas WT) | Compound | inhibition at 0.1 µM (H460 cells) | inhibition at 0.1 µM (H358 cells) | inhibition at 0.1 µM (A549 cells) | inhibition at 0.1 µM (H727 cells) | inhibition at 0.1 µM (HCT116 cells) | other results |
| --- | --- | --- | --- | --- | --- | --- | --- | --- | --- | --- | --- | --- | --- | --- | --- | --- | --- | --- | --- | --- | --- |
| < 2 nM | 99% |  | > 10000 nM | 98% | 97% | < 2 nM | < 2 nM | 1.2 nM | 55 nM |  | 100% | 31 nM | 99% | 98% | CCc1c(F)ccc2cc(O)cc(N3CCc4c(nc(OC[C@@]56CCCN5C[C@H](F)C6)nc4N4CCCn5nc(C(=O)N6CCN7CC(O)CC7C6)cc5C4)C3)c12 (stereo partly drawn) [Example 257, (5-(7-(8-ethyl-7-fluoro-3-hydroxynaphthalen-1-yl)-2-(((2R,7aS)-2-fluorotetrahydro-1H-pyrrolizin-7a(5H)-yl)methoxy)-5,6,7,8-tetrahydropyrido[3,4-d]pyrimidin-4-yl)-5,6,7,8-tetrahydro-4H-pyrazolo[1,5-a][1,4]diazepin-2-yl)(7-hydroxyhexahydropyrrolo[1,2-a]pyrazin-2(1H)-yl)methanone] | 21% | 95% | 35% | 36% | 8% | inhibition at 0.1 µM (ASPC1 cells): 77% |
| < 2 nM | 99% | 24 nM | 862 nM | 96% | 96% | < 2 nM | < 2 nM | 3.9 nM | 2 nM | 74 nM | 98% | 8 nM | 99% | 96% | CCc1c(F)ccc2cc(O)cc(N3CCc4c(nc(OC[C@@]56CCCN5C[C@H](F)C6)nc4N4CCCCn5nc(C(=O)N(C)C)cc5C4)C3)c12 [Example 349, 5-(7-(8-ethyl-7-fluoro-3-hydroxynaphthalen-1-yl)-2-(((2R,7aS)-2-fluorohexahydro-1H-pyrrolizin-7a-yl)methoxy)-5,6,7,8-tetrahydropyrido[3,4-d]pyrimidin-4-yl)-N,N-dimethyl-4,5,6,7,8,9-hexahydropyrazolo[1,5-a][1,4]diazocine-2-carboxamide] | 84% | 101% | 75% | 86% | 47% | IC50 (H358 cells): 2 nM; IC50 (A549 cells): 6 nM; inhibition at 0.1 µM (ASPC1 cells): 96% |
| 3 nM | 71% | 285 nM | > 10000 nM | 50% | 56% | 2 nM | < 2 nM | 111 nM | 136 nM | 813 nM | 54% | 72 nM | 78% | 55% | CCc1c(F)ccc2cc(O)cc(N3CCc4c(nc(OC[C@@]56CCCN5C[C@H](F)C6)nc4N4CCCn5nc6c(c5C4)CCCN6)C3)c12 [Example 392, 5-ethyl-6-fluoro-4-(2-(((2R,7aS)-2-fluorohexahydro-1H-pyrrolizin-7a-yl)methoxy)-4-(3,4,8,9-tetrahydro-1H-pyrido[2′,3′:3,4]pyrazolo[1,5-a][1,4]diazepin-6(2H,5H,7H)-yl)-5,6-dihydropyrido[3,4-d]pyrimidin-7(8H)-yl)naphthalen-2-ol] |  | 47% | 38% |  |  |  |
| < 2 nM | 99% | 24 nM | 2100 nM | 98% | 99% | < 2 nM | < 2 nM | 4.2 nM | 3 nM | 40 nM | 99% | 2 nM | 100% | 98% | CCNC(=O)c1nn2c(c1Cl)CN(c1nc(OC[C@@]34CCCN3C[C@H](F)C4)nc3c1CCN(c1cc(O)cc4ccc(F)c(CC)c14)C3)CCC2 [Example 367, 3-chloro-N-ethyl-5-(7-(8-ethyl-7-fluoro-3-hydroxynaphthalen-1-yl)-2-(((2R,7aS)-2-fluorohexahydro-1H-pyrrolizin-7a-yl)methoxy)-5,6,7,8-tetrahydropyrido[3,4-d]pyrimidin-4-yl)-5,6,7,8-tetrahydro-4H-pyrazolo[1,5-a][1,4]diazepine-2-carboxamide] | 83% | 101% | 85% |  | 62% | IC50 (H358 cells): 1 nM; IC50 (A549 cells): 5 nM |

| Compound | IC50 (KRas G12D) | inhibition at 0.01 µM (KRas G12S) | IC50 (H460 cells) | IC50 (PSN1 cells) | inhibition at 0.01 µM (KRas G13D) | inhibition at 0.01 µM (KRas G12A) | IC50 (KRas G12V) | IC50 (KRas G12R) | IC50 (MKN1 cells) | IC50 (H727 cells) | IC50 (HCT116 cells) | inhibition at 0.01 µM (KRas Q61H) | IC50 (ASPC1 cells) | inhibition at 0.01 µM (KRas G12C) | inhibition at 0.01 µM (KRas WT) | inhibition at 0.1 µM (H460 cells) | inhibition at 0.1 µM (H358 cells) | inhibition at 0.1 µM (A549 cells) | inhibition at 0.1 µM (H727 cells) | inhibition at 0.1 µM (HCT116 cells) | other results |
| --- | --- | --- | --- | --- | --- | --- | --- | --- | --- | --- | --- | --- | --- | --- | --- | --- | --- | --- | --- | --- | --- |
| CCc1c(F)ccc2cc(O)cc(N3CCc4c(nc(OC[C@@]56CCCN5C[C@H](F)C6)nc4N4CCCn5nc(C(=O)N6C7CCC6CC7)cc5C4)C3)c12 [Example 340, 7-azabicyclo[2.2.1]heptan-7-yl(5-(7-(8-ethyl-7-fluoro-3-hydroxynaphthalen-1-yl)-2-(((2R,7aS)-2-fluorohexahydro-1H-pyrrolizin-7a-yl)methoxy)-5,6,7,8-tetrahydropyrido[3,4-d]pyrimidin-4-yl)-5,6,7,8-tetrahydro-4H-pyrazolo[1,5-a][1,4]diazepin-2-yl)methanone] | < 2 nM | 99% | 31 nM | 2510 nM | 94% | 97% | < 2 nM | < 2 nM | 7.5 nM | 4 nM | 110 nM | 97% | 8 nM | 98% | 94% | 69% | 96% | 82% | 80% | 32% | IC50 (H358 cells): 3 nM; IC50 (A549 cells): 11 nM; inhibition at 0.1 µM (ASPC1 cells): 96% |
| CCc1c(F)ccc2cc(O)cc(N3CCc4c(nc(OC[C@@]56CCCN5C[C@H](F)C6)nc4N4CCCn5nc(C(=O)N6C7CCC6CNC7)cc5C4)C3)c12 [Example 258, 3,8-diazabicyclo[3.2.1]octan-8-yl(5-(7-(8-ethyl-7-fluoro-3-hydroxynaphthalen-1-yl)-2-(((2R,7aS)-2-fluorohexahydro-1H-pyrrolizin-7a-yl)methoxy)-5,6,7,8-tetrahydropyrido[3,4-d]pyrimidin-4-yl)-5,6,7,8-tetrahydro-4H-pyrazolo[1,5-a][1,4]diazepin-2-yl)methanone] | < 2 nM | 99% |  | 8640 nM | 98% | 98% | < 2 nM | < 2 nM | 5.4 nM | 24 nM |  | 97% | 29 nM | 100% | 97% | 24% | 95% | 42% | 55% | 3% | inhibition at 0.1 µM (ASPC1 cells): 79% |

Source: patent US20250368649A1, “TETRAHYDROPYRIDOPYRIMIDINE PAN-KRAS INHIBITORS” (Mirati Therapeutics, Inc., priority 2022, published 2025)
